Experimental data as given in patent US11918582B2 (RAPT Therapeutics, Inc., priority 2021, dated 2024).

molecular target: T1, human HPK1 (MAP4K1) (Homo sapiens, UniProt Q92918); assay: Biochemical assay for activity against HPK1 (ADP-Glo, MBP substrate); conditions: recombinant human HPK1 kinase domain, 1 nM enzyme, ADP-Glo luminescence
T1 construct: Recombinant human HPK1 kinase domain was obtained from ThermoFisher (Cat. #PV6357) and SignalChem (Cat. #M23-11G); purchased ThermoFisher; SignalChem PV6357; M23-11G
T1 sequence (Q92918 17-274 limits assumed): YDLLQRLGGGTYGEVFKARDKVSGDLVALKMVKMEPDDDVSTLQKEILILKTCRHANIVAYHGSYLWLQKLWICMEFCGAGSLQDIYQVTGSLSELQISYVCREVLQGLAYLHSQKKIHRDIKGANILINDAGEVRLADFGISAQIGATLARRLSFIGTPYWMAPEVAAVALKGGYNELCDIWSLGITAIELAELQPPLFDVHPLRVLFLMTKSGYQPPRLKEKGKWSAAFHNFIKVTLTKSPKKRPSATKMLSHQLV
Method in brief: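 Recombinant human HPK1 kinase domain (1 nM solution) preincubated 15 min at room temperature with compounds in pH 7.5 HEPES buffer with NaCl, TCEP, MgCl2, Tween-20, BSA. MBP substrate with ATP added, reaction run 2 h at room temperature. ADP formation read by ADP-Glo luminescence to give IC50.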

IC50 | Structure (SMILES)
< 100 nM | COc1cc2c(cc1Nc1ncc3cnn(Cc4cc[nH]c(=O)c4)c3n1)CN(C)CC2 [Example 219, 4-[[6-[(6-methoxy-2-methyl-3,4-dihydro-1H-isoquinolin-7-yl)amino]pyrazolo[3,4-d]pyrimidin-1-yl]methyl]-1H-pyridin-2-one]
< 100 nM | COc1cc2c(cc1Nc1ncc3cnn([C@H]4CC[C@@H](O)CC4)c3n1)CN(C)CC2 [Example 39, (1s,4s)-4-(6-((6-methoxy-2-methyl-1,2,3,4-tetrahydroisoquinolin-7-yl)amino)-1H-pyrazolo[3,4-d]pyrimidin-1-yl)cyclohexan-1-ol]
< 100 nM | COc1cc2c(cc1Nc1ncc3cnn(C[C@@H]4C[C@H]5C[C@H]5N4C(C)=O)c3n1)CN(C)CC2 [Example 215, 1-[(1R,3S,5R)-3-[[6-[(6-methoxy-2-methyl-3,4-dihydro-1H-isoquinolin-7-yl)amino]pyrazolo[3,4-d]pyrimidin-1-yl]methyl]-2-azabicyclo[3.1.0]hexan-2-yl]ethanone]
< 100 nM | CN1CCc2c(cc(Nc3ncc4cnn([C@H]5CC[C@@H](O)CC5)c4n3)cc2C(F)(F)F)C1 [Example 179, (1s,4s)-4-(6-((2-methyl-5-(trifluoromethyl)-1,2,3,4-tetrahydroisoquinolin-7-yl)amino)-1H-pyrazolo[3,4-d]pyrimidin-1-yl)cyclohexan-1-ol]
< 100 nM | COc1cc2c(cc1Nc1ncc3cnn(C[C@@H]4C[C@H](F)CN4C(C)=O)c3n1)CN(C)CC2 [Example 146, 1-[(2S,4S)-4-fluoro-2-[[6-[(6-methoxy-2-methyl-3,4-dihydro-1H-isoquinolin-7-yl)amino]pyrazolo[3,4-d]pyrimidin-1-yl]methyl]pyrrolidin-1-yl]ethan-1-one]
100 to 250 nM | COc1cc2c(cc1Nc1ncc3cnn(C[C@@H]4C[C@@H](F)CN4C(C)=O)c3n1)CN(C)CC2 [Example 145, 1-[(2S,4R)-4-fluoro-2-[[6-[(6-methoxy-2-methyl-3,4-dihydro-1H-isoquinolin-7-yl)amino]pyrazolo[3,4-d]pyrimidin-1-yl]methyl]pyrrolidin-1-yl]ethan-1-one]
< 100 nM | COc1cc2c(cc1Nc1ncc3cnn([C@H]4CCC[C@H](C(N)=O)C4)c3n1)CN(C)CC2 [Example 31, (1S,3S)-3-(6-((6-methoxy-2-methyl-1,2,3,4-tetrahydroisoquinolin-7-yl)amino)-1H-pyrazolo[3,4-d]pyrimidin-1-yl)cyclohexane-1-carboxamide]
< 100 nM | COc1cc2c(cc1Nc1ncc3cnn([C@H]4CC[C@@H](C(=O)N(C)C)CC4)c3n1)CN(C)CC2 [Example 54, (1s,4s)-4-(6-((6-methoxy-2-methyl-1,2,3,4-tetrahydroisoquinolin-7-yl)amino)-1H-pyrazolo[3,4-d]pyrimidin-1-yl)-N,N-dimethylcyclohexane-1-carboxamide]
< 100 nM | COC[C@H]1CC[C@H](n2ncc3cnc(Nc4cc5c(cc4OC)CCN(C)C5)nc32)CC1 [Example 175, 6-methoxy-N-[trans-1-[4-(methoxymethyl)cyclohexyl]pyrazolo[3,4-d]pyrimidin-6-yl]-2-methyl-3,4-dihydro-1H-isoquinolin-7-amine]
< 100 nM | COc1cc2c(cc1Nc1ncc3cnn([C@H]4CCC[C@H](C(N)=O)C4)c3n1)CN(C)CC2 (racemic) [Example 29, rac-(1S,3S)-3-(6-((6-methoxy-2-methyl-1,2,3,4-tetrahydroisoquinolin-7-yl)amino)-1H-pyrazolo[3,4-d]pyrimidin-1-yl)cyclohexane-1-carboxamide]
100 to 250 nM | COc1cc2c(cc1Nc1ncc3cnn(C[C@@H]4C[C@H](C(F)(F)F)CN4C(C)=O)c3n1)CN(C)CC2 [Example 144, 1-[(2S,4S)-2-[[6-[(6-methoxy-2-methyl-3,4-dihydro-1H-isoquinolin-7-yl)amino]pyrazolo[3,4-d]pyrimidin-1-yl]methyl]-4-(trifluoromethyl)pyrrolidin-1-yl]ethan-1-one]
